Assay results from ChEMBL document CHEMBL5113520, “From a Cone Snail Toxin to a Competitive MC4R Antagonist” (J Med Chem, 2022).
pKi: −log10 of the molar value. Where a SMILES comes first, the peptide text is derived from it. Bridges are numbered along the chain shown (N, C = ends).

Assays:
Assay type in all cases: cell-based
Conditions in all cases: for pKi: read-out: Ki; for Ki: read-out: pKi (converted)
[1] = biological target: Melanocyte-stimulating hormone receptor (Homo sapiens, UniProt Q01726); experiment: Displacement of [125I]-NDP-alpha-MSH from human MC1R expressed in CHO cells by Topcount beta counter analysis
[2] = biological target: Melanocortin receptor 4 (Homo sapiens, UniProt P32245); experiment: Displacement of [125I]-NDP-alpha-MSH from human MC4R expressed in CHO cells by Topcount beta counter analysis
[3] = biological target: Melanocortin receptor 3 (Homo sapiens, UniProt P41968); experiment: Displacement of [125I]-NDP-alpha-MSH from human MC3R expressed in HEK293 cells by Topcount beta counter analysis
[4] = biological target: Melanocortin receptor 5 (Homo sapiens, UniProt P33032); experiment: Displacement of [125I]-NDP-alpha-MSH from human MC5R expressed in CHO cells by Topcount beta counter analysis
Sequence of Melanocortin receptor 5 (P33032 whole entry): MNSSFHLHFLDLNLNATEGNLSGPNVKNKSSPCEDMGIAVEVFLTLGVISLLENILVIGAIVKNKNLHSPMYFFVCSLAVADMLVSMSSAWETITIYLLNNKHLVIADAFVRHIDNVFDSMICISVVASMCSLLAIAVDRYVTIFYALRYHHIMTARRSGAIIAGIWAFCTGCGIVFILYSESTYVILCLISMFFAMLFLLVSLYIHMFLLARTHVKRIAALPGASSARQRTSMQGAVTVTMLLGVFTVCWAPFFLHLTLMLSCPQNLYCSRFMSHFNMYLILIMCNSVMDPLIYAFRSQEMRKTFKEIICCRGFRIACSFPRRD

Sequence of Melanocyte-stimulating hormone receptor (Q01726 whole entry): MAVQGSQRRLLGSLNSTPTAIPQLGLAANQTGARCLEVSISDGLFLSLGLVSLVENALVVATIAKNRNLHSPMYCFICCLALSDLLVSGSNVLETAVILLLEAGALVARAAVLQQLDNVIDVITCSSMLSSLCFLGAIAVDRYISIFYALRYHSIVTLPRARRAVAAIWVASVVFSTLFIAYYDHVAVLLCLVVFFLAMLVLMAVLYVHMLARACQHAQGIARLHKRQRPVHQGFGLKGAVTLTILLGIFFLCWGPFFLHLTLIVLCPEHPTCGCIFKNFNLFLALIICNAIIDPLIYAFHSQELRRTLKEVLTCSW
Sequence of Melanocortin receptor 4 (P32245 whole entry): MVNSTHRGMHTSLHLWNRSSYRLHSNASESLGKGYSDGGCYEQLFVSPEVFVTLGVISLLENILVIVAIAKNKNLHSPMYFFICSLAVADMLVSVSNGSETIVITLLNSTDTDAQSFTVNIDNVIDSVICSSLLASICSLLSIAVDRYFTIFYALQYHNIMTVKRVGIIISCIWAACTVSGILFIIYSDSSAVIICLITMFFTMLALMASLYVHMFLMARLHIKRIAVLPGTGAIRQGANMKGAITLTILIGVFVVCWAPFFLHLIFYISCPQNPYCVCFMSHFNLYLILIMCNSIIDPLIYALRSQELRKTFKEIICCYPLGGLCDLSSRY
Sequence of Melanocortin receptor 3 (P41968 whole entry): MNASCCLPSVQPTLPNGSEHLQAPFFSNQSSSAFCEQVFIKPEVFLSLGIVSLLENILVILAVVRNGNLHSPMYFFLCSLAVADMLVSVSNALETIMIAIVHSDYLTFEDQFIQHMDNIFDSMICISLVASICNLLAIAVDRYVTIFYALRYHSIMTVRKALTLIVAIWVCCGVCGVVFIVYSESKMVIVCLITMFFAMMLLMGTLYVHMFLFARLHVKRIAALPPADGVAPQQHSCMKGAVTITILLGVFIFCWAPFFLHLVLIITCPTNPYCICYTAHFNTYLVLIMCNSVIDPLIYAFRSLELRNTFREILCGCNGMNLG

Molecule | pKi [2] | Ki [2] | further results
CC(C)C[C@H](NC(=O)[C@H](CCCCN)NC(=O)[C@H](Cc1ccccc1)NC(=O)[C@H](CCC(N)=O)NC(=O)[C@@H]1CSSC[C@@H]2NC(=O)[C@H](CCC(N)=O)NC(=O)[C@@H](NC(=O)[C@H](Cc3ccc(O)cc3)NC(=O)[C@H](Cc3c[nH]cn3)NC(=O)[C@H](Cc3ccccc3)NC(=O)[C@@H](N)CC(C)C)CSSC[C@H](NC(=O)[C@H](CCC(N)=O)NC2=O)C(=O)N2CCC[C@H]2C(=O)N2CCC[C@H]2C(=O)NCC(=O)N[C@@H](Cc2ccccc2)C(=O)N[C@@H](CCCCN)C(=O)NCC(=O)N[C@@H](CCCCN)C(=O)N[C@@H](Cc2ccccc2)C(=O)N1)C(=O)N[C@@H](CCCNC(=N)N)C(=O)N1CCC[C@H]1C(=O)N1CCC[C@H]1C(=O)O (H-LFHYCQCQCPPGFKGKFCQFKLRPP-OH; disulfide 5-9, 7-18) | 7.31 | 44.7 nM | pKi [1]: 6.26; Ki [1]: 617 nM; pKi [3]: 7.05; pKi [4]: 7.28; Ki [4]: 33.9 nM
H-LFHYQQKQKPPGFKGAFQQFKLRPP-OH | 7.12 | 72.4 nM | 
CC(C)C[C@H](NC(=O)[C@H](CCCCN)NC(=O)[C@H](Cc1ccccc1)NC(=O)[C@H](CCC(N)=O)NC(=O)[C@@H]1CSSC[C@H](NC(=O)[C@H](Cc2ccc(O)cc2)NC(=O)[C@H](Cc2c[nH]cn2)NC(=O)[C@H](Cc2ccccc2)NC(=O)[C@@H](N)CC(C)C)C(=O)N[C@@H](CCC(N)=O)C(=O)N[C@H]2CSSC[C@H](NC(=O)[C@H](CCC(N)=O)NC2=O)C(=O)N2CCC[C@H]2C(=O)N2CCC[C@H]2C(=O)NCC(=O)N[C@@H](Cc2ccccc2)C(=O)N[C@@H](CCCCN)C(=O)NCC(=O)N[C@@H](CCCCN)C(=O)N[C@@H](Cc2ccccc2)C(=O)N1)C(=O)N[C@@H](CCCNC(=N)N)C(=O)N1CCC[C@H]1C(=O)N1CCC[C@H]1C(=O)O (H-LFHYCQCQCPPGFKGKFCQFKLRPP-OH; disulfide 5-18, 7-9) | 7.32 | 43.7 nM | pKi [1]: 6.26; Ki [1]: 490 nM; pKi [3]: 6.96; Ki [3]: 97.7 nM; pKi [4]: 7.39; Ki [4]: 28.8 nM
H-LFHYQQKQKPPGFKGEFQQFKLRPP-OH | 6.69 |  | 
CC(C)C[C@H](NC(=O)[C@H](CCCCN)NC(=O)[C@H](Cc1ccccc1)NC(=O)[C@H](CCC(N)=O)NC(=O)[C@@H]1CSSC[C@H](NC(=O)[C@H](Cc2ccc(O)cc2)NC(=O)[C@H](Cc2c[nH]cn2)NC(=O)[C@H](Cc2ccccc2)NC(=O)[C@@H](N)CC(C)C)C(=O)N[C@@H](CCC(N)=O)C(=O)N[C@@H](CO)C(=O)N[C@@H](CCC(N)=O)C(=O)N[C@@H](CO)C(=O)N2CCC[C@H]2C(=O)N2CCC[C@H]2C(=O)NCC(=O)N[C@@H](Cc2ccccc2)C(=O)N[C@@H](CCCCN)C(=O)NCC(=O)N[C@@H](CCCCN)C(=O)N[C@@H](Cc2ccccc2)C(=O)N1)C(=O)N[C@@H](CCCNC(=N)N)C(=O)N1CCC[C@H]1C(=O)N1CCC[C@H]1C(=O)O (H-LFHYCQSQSPPGFKGKFCQFKLRPP-OH; disulfide 5-18) |  | 67.6 nM | Ki [1]: 776 nM; Ki [3]: 224 nM; Ki [4]: 229 nM
H-LFHYQQKQKPPGFAGKFQQFKLRPP-OH | 7.27 |  | 
H-AFHYQQKQKPPGFKGKFQQFKLRPP-OH | 6.90 | 123 nM | 
H-LFHYQQKQKPPGFEGKFQQFKLRPP-OH | 6.58 | 257 nM | 
CC(C)C[C@H](NC(=O)[C@H](CCCCN)NC(=O)[C@H](Cc1ccccc1)NC(=O)[C@H](CCC(N)=O)NC(=O)[C@@H]1CSSC[C@H](NC(=O)[C@H](Cc2ccc(O)cc2)NC(=O)[C@H](Cc2c[nH]cn2)NC(=O)[C@H](Cc2ccccc2)NC(=O)[C@@H](N)CC(C)C)C(=O)N[C@@H](CCC(N)=O)C(=O)N[C@@H](C(C)C)C(=O)N[C@@H](CCC(N)=O)C(=O)N[C@@H](C(C)C)C(=O)N2CCC[C@H]2C(=O)N2CCC[C@H]2C(=O)NCC(=O)N[C@@H](Cc2ccccc2)C(=O)N[C@@H](CCCCN)C(=O)NCC(=O)N[C@@H](CCCCN)C(=O)N[C@@H](Cc2ccccc2)C(=O)N1)C(=O)N[C@@H](CCCNC(=N)N)C(=O)N1CCC[C@H]1C(=O)N1CCC[C@H]1C(=O)O (H-LFHYCQVQVPPGFKGKFCQFKLRPP-OH; disulfide 5-18) |  | 60.3 nM | Ki [1]: 724 nM; Ki [3]: 282 nM; Ki [4]: 224 nM
H-LFHAQQKQKPPGFKGKFQQFKLRPP-OH | 6.95 |  | 
H-LAHYQQKQKPPGFKGKFQQFKLRPP-OH | 6.63 |  | 
Ac-LFHYQQKQKPPGFKGKFQQFKLRPP-OH | 6.86 | 135 nM | 
CC(C)C[C@H](NC(=O)[C@H](CCCCN)NC(=O)[C@H](Cc1ccccc1)NC(=O)[C@H](CCC(N)=O)NC(=O)[C@@H]1CSSC[C@H](NC(=O)[C@H](CCC(N)=O)NC(=O)[C@H](C)NC(=O)[C@H](CCC(N)=O)NC(=O)[C@H](C)NC(=O)[C@H](Cc2ccc(O)cc2)NC(=O)[C@H](Cc2c[nH]cn2)NC(=O)[C@H](Cc2ccccc2)NC(=O)[C@@H](N)CC(C)C)C(=O)N2CCC[C@H]2C(=O)N2CCC[C@H]2C(=O)NCC(=O)N[C@@H](Cc2ccccc2)C(=O)N[C@@H](CCCCN)C(=O)NCC(=O)N[C@@H](CCCCN)C(=O)N[C@@H](Cc2ccccc2)C(=O)N1)C(=O)N[C@@H](CCCNC(=N)N)C(=O)N1CCC[C@H]1C(=O)N1CCC[C@H]1C(=O)O (H-LFHYAQAQCPPGFKGKFCQFKLRPP-OH; disulfide 9-18) |  | 245 nM | 
H-LFHYQQKQKPPGFKGKFQQF-OH | 7.26 | 53.7 nM | 
H-HYQQKQKPPGFKGKFQQFKLRPP-OH | 5.66 | 2040 nM | 
CC(C)C[C@H](NC(=O)[C@H](CCCCN)NC(=O)[C@H](Cc1ccccc1)NC(=O)[C@H](CCC(N)=O)NC(=O)[C@@H]1CSSC[C@H](NC(=O)[C@H](CCC(N)=O)NC(=O)[C@H](C)NC(=O)[C@H](Cc2ccc(O)cc2)NC(=O)[C@H](Cc2c[nH]cn2)NC(=O)[C@H](Cc2ccccc2)NC(=O)[C@@H](N)CC(C)C)C(=O)N[C@@H](CCC(N)=O)C(=O)N[C@@H](C)C(=O)N2CCC[C@H]2C(=O)N2CCC[C@H]2C(=O)NCC(=O)N[C@@H](Cc2ccccc2)C(=O)N[C@@H](CCCCN)C(=O)NCC(=O)N[C@@H](CCCCN)C(=O)N[C@@H](Cc2ccccc2)C(=O)N1)C(=O)N[C@@H](CCCNC(=N)N)C(=O)N1CCC[C@H]1C(=O)N1CCC[C@H]1C(=O)O (H-LFHYAQCQAPPGFKGKFCQFKLRPP-OH; disulfide 7-18) |  | 245 nM | 
H-LFHYQQKQKPPGFKGKFQQFKL-OH | 7.54 | 27.5 nM | 
H-LFHYQQKQKPPGFKGKFQQFKLR-OH | 7.85 | 12.3 nM | 
H-FHYQQKQKPPGFKGKFQQFKLRPP-OH | 6.48 | 288 nM | 
H-YQQKQKPPGFKGKFQQFKLRPP-OH | 5.84 | 1320 nM | 
CC(C)C[C@H](NC(=O)[C@H](CCC(=O)O)NC(=O)[C@H](Cc1ccccc1)NC(=O)[C@H](CCC(N)=O)NC(=O)[C@H](CCC(N)=O)N1C(=O)[C@@H](NC(=O)[C@H](CCCCN)NC(=O)CNC(=O)[C@H](CCCCN)NC(=O)[C@H](Cc2ccccc2)NC(=O)CNC(=O)[C@@H]2CCCN2C(=O)[C@@H]2CCCN2C(=O)[C@H](CCCCN)NC(=O)[C@H](CCC(N)=O)NC(=O)[C@H](CCCCN)NC(=O)[C@H](CCC(N)=O)NC(=O)[C@H](CCC(N)=O)NC(=O)[C@H](Cc2ccc(O)cc2)NC(=O)[C@H](Cc2c[nH]cn2)NC(=O)[C@H](Cc2ccccc2)NC(=O)[C@@H](N)CC(C)C)Cc2ccccc21)C(=O)N[C@@H](CCCNC(=N)N)C(=O)N1CCC[C@H]1C(=O)N1CCC[C@H]1C(=O)O | 7.04 | 89.1 nM | 
H-LFHYQQKQKPPGFKGKFQQFKLRPP-NH2 | 8.05 | 8.13 nM | 
